In BindingDB's records for doi:10.1124/jpet.106.103382 (Wyeth Research, 2006):
pIC50: −log10 of the molar value.

How the values were obtained:
[1] = molecular target: T1, Adenosine receptor A1 (Homo sapiens, UniProt P30542)
T1 sequence (P30542 whole entry): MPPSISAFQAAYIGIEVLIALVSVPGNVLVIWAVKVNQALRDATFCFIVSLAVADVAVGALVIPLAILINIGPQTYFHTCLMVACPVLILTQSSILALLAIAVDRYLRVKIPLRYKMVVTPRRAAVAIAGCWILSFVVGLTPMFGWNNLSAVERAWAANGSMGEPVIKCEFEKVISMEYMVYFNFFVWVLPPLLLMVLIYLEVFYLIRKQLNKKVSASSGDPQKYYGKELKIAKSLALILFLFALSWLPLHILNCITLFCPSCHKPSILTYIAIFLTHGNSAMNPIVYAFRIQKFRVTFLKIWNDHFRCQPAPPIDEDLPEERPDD

[2] = molecular target: T2, Muscarinic acetylcholine receptor M4 (Homo sapiens, UniProt P08173)
T2 sequence (P08173 whole entry): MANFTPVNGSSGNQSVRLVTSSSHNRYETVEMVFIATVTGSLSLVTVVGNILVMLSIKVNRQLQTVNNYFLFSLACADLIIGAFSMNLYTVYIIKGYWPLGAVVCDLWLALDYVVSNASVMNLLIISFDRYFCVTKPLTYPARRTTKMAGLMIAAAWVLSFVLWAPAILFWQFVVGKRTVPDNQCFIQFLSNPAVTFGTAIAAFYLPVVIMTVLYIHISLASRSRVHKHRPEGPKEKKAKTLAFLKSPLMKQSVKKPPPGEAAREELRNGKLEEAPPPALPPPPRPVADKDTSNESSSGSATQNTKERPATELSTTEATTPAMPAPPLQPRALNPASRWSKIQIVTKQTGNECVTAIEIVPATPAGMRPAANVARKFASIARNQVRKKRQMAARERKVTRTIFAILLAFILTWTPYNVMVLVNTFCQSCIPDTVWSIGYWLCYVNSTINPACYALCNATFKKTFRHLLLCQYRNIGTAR

[3] = molecular target: D(1A) dopamine receptor (Homo sapiens, UniProt P21728)
[4] = molecular target: Transporter (Cavia porcellus, UniProt H0WCX4)
[5] = molecular target: Histamine H2 receptor (Homo sapiens) (UniProt P25021)
[6] = molecular target: Cannabinoid receptor 1 (Homo sapiens, UniProt P21554)
[7] = molecular target: T3, Muscarinic acetylcholine receptor M2 (Homo sapiens, UniProt P08172)
T3 sequence (P08172 whole entry): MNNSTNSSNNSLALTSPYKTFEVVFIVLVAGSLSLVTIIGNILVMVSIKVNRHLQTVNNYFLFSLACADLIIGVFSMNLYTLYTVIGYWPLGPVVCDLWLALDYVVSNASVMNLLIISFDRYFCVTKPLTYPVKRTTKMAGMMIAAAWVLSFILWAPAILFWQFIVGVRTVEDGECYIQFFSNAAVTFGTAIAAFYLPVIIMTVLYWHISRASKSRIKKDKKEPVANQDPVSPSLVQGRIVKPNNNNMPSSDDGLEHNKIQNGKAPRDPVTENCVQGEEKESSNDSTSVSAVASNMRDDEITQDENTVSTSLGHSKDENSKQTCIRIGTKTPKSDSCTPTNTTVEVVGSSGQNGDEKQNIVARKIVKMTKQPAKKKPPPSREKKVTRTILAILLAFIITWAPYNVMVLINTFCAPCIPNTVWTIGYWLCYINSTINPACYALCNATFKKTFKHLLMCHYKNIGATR

[8] = molecular target: Histamine H1 receptor (Homo sapiens) (UniProt P35367)
[9] = molecular target: Cannabinoid receptor 2 (Homo sapiens, UniProt P34972)
[10] = molecular target: D(2) dopamine receptor (Homo sapiens, UniProt P14416)
[11] = molecular target: Histamine H3 receptor (Homo sapiens) (UniProt Q9Y5N1)
[12] = molecular target: T4, Muscarinic acetylcholine receptor M1 (Homo sapiens, UniProt P11229)
T4 sequence (P11229 whole entry): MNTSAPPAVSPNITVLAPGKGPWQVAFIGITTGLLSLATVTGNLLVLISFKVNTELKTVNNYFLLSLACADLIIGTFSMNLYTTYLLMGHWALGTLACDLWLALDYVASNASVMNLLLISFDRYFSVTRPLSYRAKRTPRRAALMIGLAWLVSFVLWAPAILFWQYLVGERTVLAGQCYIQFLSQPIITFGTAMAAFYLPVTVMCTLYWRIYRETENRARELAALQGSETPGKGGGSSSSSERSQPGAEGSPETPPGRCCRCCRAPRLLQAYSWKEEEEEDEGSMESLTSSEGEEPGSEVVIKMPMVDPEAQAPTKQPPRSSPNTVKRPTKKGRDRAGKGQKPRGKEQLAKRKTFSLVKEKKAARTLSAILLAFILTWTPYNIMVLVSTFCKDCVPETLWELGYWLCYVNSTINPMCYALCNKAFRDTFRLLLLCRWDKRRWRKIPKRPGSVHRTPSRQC

[13] = molecular target: T5, Adenosine receptor A2b (Bos taurus, UniProt Q1LZD0)
T5 sequence (Q1LZD0 whole entry): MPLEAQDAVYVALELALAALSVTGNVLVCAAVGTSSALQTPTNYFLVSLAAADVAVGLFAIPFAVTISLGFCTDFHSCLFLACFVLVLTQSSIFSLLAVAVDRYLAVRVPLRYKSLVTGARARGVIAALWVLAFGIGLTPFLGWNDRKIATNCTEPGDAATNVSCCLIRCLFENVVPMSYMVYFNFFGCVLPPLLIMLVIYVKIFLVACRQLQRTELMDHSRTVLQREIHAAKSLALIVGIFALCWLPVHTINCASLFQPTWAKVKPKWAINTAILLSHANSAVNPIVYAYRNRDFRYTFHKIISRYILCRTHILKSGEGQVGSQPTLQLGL

[14] = molecular target: Muscarinic acetylcholine receptor M3 (Homo sapiens, UniProt P20309)
[15] = molecular target: D(3) dopamine receptor (Homo sapiens) (UniProt P35462)
[16] = molecular target: T6, Muscarinic acetylcholine receptor M5 (Homo sapiens, UniProt P08912)
T6 sequence (P08912 whole entry): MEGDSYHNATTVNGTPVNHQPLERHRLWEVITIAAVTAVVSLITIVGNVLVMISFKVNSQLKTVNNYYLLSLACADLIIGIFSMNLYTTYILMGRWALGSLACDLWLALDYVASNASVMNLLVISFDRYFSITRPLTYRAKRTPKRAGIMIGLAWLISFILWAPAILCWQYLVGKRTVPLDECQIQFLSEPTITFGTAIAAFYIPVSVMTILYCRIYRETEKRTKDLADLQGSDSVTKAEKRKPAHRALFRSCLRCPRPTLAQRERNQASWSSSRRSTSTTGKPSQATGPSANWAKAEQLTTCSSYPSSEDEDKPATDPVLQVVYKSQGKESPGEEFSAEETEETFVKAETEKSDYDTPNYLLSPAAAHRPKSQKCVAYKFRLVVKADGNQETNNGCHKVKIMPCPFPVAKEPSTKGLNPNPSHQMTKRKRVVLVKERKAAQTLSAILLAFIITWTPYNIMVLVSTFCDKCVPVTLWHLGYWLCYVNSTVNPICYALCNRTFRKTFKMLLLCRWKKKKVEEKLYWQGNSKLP

Chain of Transporter (H0WCX4 whole entry): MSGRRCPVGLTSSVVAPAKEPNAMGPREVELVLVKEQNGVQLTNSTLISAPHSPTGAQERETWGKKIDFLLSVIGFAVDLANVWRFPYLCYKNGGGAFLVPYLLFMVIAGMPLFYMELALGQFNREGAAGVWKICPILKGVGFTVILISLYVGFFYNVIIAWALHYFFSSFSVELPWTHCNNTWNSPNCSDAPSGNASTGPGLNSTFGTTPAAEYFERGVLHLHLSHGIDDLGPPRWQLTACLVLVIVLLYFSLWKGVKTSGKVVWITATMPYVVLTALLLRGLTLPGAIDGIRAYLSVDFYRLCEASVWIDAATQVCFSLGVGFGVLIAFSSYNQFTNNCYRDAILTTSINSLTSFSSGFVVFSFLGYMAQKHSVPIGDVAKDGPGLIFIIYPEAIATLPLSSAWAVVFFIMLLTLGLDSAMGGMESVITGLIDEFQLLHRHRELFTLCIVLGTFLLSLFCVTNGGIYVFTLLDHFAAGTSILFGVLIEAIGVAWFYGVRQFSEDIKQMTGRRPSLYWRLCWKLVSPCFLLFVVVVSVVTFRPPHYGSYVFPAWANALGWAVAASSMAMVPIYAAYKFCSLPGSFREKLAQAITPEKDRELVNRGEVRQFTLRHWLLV
Chain of D(1A) dopamine receptor (P21728 whole entry): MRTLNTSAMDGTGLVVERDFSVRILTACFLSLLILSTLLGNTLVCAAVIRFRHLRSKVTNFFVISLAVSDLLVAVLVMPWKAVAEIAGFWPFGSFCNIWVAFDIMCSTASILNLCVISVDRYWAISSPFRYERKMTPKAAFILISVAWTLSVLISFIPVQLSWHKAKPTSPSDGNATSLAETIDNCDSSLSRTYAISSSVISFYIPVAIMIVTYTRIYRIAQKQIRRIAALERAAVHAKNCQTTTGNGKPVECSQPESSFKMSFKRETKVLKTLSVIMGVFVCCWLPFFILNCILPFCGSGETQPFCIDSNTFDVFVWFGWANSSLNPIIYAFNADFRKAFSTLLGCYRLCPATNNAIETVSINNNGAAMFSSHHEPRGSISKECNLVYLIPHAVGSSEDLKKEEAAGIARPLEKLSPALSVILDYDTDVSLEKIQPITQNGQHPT
Chain of D(3) dopamine receptor (Homo sapiens) (P35462 whole entry, looked up): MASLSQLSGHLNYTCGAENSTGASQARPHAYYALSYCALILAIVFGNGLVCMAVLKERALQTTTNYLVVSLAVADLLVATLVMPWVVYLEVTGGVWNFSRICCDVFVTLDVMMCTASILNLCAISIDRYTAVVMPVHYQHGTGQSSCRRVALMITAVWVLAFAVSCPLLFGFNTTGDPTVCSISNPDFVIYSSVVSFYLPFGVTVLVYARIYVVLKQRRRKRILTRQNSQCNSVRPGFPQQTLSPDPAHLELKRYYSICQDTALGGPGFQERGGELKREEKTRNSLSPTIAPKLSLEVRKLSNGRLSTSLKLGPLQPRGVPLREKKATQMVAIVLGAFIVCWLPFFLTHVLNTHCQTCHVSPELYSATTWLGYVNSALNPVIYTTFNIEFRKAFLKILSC
Chain of Muscarinic acetylcholine receptor M3 (P20309 whole entry): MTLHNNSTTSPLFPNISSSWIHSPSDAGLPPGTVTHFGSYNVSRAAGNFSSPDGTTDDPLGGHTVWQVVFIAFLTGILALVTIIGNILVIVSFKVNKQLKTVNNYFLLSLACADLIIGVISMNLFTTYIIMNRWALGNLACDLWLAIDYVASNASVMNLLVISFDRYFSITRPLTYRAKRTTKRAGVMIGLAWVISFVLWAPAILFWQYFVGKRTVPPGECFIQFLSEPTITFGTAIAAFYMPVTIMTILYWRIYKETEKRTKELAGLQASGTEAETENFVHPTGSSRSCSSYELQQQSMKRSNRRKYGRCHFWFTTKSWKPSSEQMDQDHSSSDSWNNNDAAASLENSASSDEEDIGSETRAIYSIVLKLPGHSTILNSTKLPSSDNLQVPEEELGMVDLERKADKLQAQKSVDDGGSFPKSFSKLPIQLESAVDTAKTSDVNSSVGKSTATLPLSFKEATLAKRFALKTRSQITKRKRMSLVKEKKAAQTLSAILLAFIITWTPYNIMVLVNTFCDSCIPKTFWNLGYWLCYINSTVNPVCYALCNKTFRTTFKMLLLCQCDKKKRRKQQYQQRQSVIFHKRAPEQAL
Chain of Histamine H1 receptor (Homo sapiens) (P35367 whole entry, looked up): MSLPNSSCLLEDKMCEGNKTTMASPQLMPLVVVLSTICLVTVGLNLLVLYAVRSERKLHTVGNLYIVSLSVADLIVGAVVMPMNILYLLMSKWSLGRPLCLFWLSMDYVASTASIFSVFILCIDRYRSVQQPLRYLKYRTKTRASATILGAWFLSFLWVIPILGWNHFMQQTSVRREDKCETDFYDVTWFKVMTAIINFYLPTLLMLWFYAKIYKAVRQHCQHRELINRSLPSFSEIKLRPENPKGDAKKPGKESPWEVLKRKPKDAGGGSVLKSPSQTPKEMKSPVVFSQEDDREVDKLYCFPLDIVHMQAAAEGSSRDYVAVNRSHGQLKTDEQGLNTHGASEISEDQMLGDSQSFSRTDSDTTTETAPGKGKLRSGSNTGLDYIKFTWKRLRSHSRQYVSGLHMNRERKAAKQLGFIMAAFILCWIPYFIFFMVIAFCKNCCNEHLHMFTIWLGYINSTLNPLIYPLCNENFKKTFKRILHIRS
Chain of Cannabinoid receptor 1 (P21554 whole entry): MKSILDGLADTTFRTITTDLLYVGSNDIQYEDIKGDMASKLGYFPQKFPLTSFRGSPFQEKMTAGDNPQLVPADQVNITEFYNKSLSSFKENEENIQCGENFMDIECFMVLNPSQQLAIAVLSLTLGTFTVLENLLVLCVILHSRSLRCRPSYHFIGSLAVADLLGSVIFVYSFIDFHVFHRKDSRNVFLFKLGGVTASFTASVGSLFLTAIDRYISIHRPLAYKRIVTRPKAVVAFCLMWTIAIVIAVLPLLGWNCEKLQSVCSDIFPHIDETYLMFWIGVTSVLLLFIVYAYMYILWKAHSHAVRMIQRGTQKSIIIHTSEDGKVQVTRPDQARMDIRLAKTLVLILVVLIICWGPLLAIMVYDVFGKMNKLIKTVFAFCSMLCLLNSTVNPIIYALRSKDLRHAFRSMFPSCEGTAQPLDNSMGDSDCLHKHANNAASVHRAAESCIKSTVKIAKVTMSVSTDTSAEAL
Chain of Cannabinoid receptor 2 (P34972 whole entry): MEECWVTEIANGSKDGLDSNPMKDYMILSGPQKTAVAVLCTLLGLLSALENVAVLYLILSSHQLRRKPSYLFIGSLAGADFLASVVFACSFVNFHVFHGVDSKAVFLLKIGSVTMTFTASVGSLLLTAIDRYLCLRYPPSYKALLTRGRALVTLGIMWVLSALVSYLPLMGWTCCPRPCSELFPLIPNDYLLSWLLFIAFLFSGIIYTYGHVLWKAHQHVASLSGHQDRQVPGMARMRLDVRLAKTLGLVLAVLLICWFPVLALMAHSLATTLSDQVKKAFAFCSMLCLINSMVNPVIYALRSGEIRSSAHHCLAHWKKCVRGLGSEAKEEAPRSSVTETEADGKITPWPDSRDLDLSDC
Chain of D(2) dopamine receptor (P14416 whole entry): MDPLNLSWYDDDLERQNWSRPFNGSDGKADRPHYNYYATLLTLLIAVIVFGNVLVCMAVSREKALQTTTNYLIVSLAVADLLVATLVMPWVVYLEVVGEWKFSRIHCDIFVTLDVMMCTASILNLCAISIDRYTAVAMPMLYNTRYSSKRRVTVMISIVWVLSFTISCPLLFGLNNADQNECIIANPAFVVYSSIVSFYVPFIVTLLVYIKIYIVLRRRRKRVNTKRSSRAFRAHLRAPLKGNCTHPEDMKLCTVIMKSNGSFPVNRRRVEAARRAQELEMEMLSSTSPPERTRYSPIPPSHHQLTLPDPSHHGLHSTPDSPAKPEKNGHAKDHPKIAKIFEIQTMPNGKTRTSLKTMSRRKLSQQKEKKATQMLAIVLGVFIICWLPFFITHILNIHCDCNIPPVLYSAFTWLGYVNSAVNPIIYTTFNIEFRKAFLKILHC
Chain of Histamine H3 receptor (Homo sapiens) (Q9Y5N1 whole entry, looked up): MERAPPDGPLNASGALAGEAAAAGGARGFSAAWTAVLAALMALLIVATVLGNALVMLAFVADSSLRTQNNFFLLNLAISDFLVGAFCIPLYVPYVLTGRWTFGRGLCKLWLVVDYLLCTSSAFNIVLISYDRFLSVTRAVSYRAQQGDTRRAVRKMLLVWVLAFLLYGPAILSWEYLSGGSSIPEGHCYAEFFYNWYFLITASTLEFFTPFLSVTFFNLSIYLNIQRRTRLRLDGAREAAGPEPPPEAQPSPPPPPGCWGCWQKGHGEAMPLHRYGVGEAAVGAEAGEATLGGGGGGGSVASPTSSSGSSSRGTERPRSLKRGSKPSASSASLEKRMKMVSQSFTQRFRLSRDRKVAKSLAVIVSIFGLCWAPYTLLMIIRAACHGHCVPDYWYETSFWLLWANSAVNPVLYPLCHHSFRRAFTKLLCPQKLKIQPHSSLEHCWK
Chain of Histamine H2 receptor (Homo sapiens) (P25021 whole entry, looked up): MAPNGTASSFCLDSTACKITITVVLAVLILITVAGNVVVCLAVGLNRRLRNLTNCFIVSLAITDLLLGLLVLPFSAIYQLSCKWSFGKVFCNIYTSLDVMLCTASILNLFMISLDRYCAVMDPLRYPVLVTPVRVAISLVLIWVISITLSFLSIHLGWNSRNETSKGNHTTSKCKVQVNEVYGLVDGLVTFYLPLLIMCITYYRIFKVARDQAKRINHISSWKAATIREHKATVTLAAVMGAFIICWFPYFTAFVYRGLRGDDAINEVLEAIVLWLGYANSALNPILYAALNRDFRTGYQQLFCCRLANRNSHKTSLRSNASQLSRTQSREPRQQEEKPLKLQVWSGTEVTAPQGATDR

pIC50 [1]: < 5.00
pIC50 [2]: < 5.00
pIC50 [3]: < 5.00
pIC50 [4]: < 5.00
pIC50 [5]: < 5.00
pIC50 [6]: < 5.00
pIC50 [7]: < 5.00
pIC50 [8]: < 5.00
pIC50 [9]: < 5.00
pIC50 [10]: < 5.00
pIC50 [11]: < 5.00
pIC50 [12]: < 5.00
pIC50 [13]: < 5.00
pIC50 [14]: < 5.00
pIC50 [15]: < 5.00
pIC50 [16]: < 5.00
SMILES: CN(C)CC(c1ccc(O)cc1)C1(O)CCCCC1 (stereo unspecified) [CAS_386750-22-7]
